Patent US11291206B2, “Herbicidal composition comprising cinmethylin and specific pigment synthesis inhibitors” (BASF Agro B.V., priority 2015, dated 2022)

Experiments:
Assay type in all cases: in vivo
Anthemis arvensis [1] = assay: Greenhouse pre-emergence herbicidal activity; details: preemergence, ANTAR, 20 DAT
Protocol: (§1) The test plants have been seeded, separately for each species, in plastic containers in sandy loamy soil containing 5% of organic matter.
(§2) The containers were irrigated gently to promote germination and growth and subsequently covered with transparent plastic hoods until the plants had rooted.
(§3) The plants have been cultivated due to their individual requirements at 10-25° C. and 20-35° C. The plants were irrigated due to their necessity.
(§4) The racemic mixture (±)-2-exo-(2-M ethylbenzyloxy)-1-methyl-4-isopropyl-7-oxabicyclo[2.2.1]heptane was used as herbicide A and formulated as emulsifiable concentrates with an active ingredient concentration of 50g/I, 100 g/I or 750 g/I respectively.
(§5) Clomazone (herbicide B.3) was used as wettable powder (WP) formulation having an active ingredient concentration of 50%.
(§6) In the following experiments, the herbicidal activity for the individual herbicidal compositions (solo and mixture applications) was assessed 20 days after treatment (DAT).
(§7) The evaluation for the damage on undesired weeds caused by the chemical compositions was carried out using a scale from 0 to 100%, compared to the untreated control plants. Here, 0 means no damage and 100 means complete destruction of the plants.
(§8) E=X+Y−(X·Y/100) where • X=effect in percent using herbicide A at an application rate a; • Y=effect in percent using herbicide B at application rate b; • E=expected effect (in %) of herbicide A+herbicide B at application rates a+b.
(§9) The value E corresponds to the effect (plant damage or injury) which is to be expected if the activity of the individual compounds is additive.

Brassica napus = assay: Greenhouse pre-emergence herbicidal activity; details: preemergence, BRSNW, 20 DAT
Protocol: as §1, §2, §3, §4, §5, §6, §7, §8, §9

Geranium dissectum = assay: Greenhouse pre-emergence herbicidal activity; details: preemergence, GERDI, 20 DAT
Protocol: as §1, §2, §3, §4, §5, §6, §7, §8, §9

Lolium multiflorum [2] = assay: Greenhouse pre-emergence herbicidal activity; details: preemergence, LOLMU, 20 DAT
Protocol: as §1, §2, §3, §4, §5, §6, §7, §8, §9

Papaver rhoeas = assay: Greenhouse pre-emergence herbicidal activity; details: preemergence, PAPRH, 20 DAT
Protocol: as §1, §2, §3, §4, §5, §6, §7, §8, §9

Polygonum convolvulus = assay: Greenhouse pre-emergence herbicidal activity; details: preemergence, POLCO, 20 DAT
Protocol: as §1, §2, §3, §4, §5, §6, §7, §8, §9

Anthemis arvensis [3] = assay: Greenhouse post-emergence herbicidal activity; details: postemergence, ANTAR, 20 DAT
Protocol: as §1
(§10) For the post emergence treatment, the plants were first grown to the 2 leaf station (GS 12) and applied at GS 12-19 depending on the species. Here, the herbicidal compositions were suspended or emulsified in water as distribution medium and sprayed using finely distributing nozzels.
as §3, §4, §5, §6, §7, §8, §9

Lolium multiflorum [4] = assay: Greenhouse post-emergence herbicidal activity; details: postemergence, LOLMU, 20 DAT
Protocol: as §1, §10, §3, §4, §5, §6, §7, §8, §9

[5] = solo application herbicide A 62.5 g ai/ha
[6] = solo application herbicide A 125 g ai/ha
[7] = solo application herbicide A 250 g ai/ha
[8] = solo application clomazone 125 g ai/ha
[9] = solo application clomazone 250 g ai/ha
[10] = solo application clomazone 187.5 g ai/ha
[11] = solo application clomazone 500 g ai/ha
[12] = solo application clomazone 750 g ai/ha

SMILES: Cc1ccccc1CO[C@@H]1C[C@@]2(C(C)C)CC[C@]1(C)O2 (racemic) [herbicide A, (±)-2-exo-(2-Methylbenzyloxy)-1-methyl-4-isopropyl-7-oxabicyclo[2.2.1]heptane]
- herbicidal activity (Anthemis arvensis [1]; [5]): 0%
- herbicidal activity (Anthemis arvensis [1]; [6]): 20%
- herbicidal activity (Brassica napus; [5]): 0%
- herbicidal activity (Brassica napus; [7]): 15%
- herbicidal activity (Brassica napus; solo application herbicide A 500 g ai/ha): 40%
- herbicidal activity (Geranium dissectum; [5]): 70%
- herbicidal activity (Geranium dissectum; [6]): 70%
- herbicidal activity (Geranium dissectum; [7]): 70%
- herbicidal activity (Lolium multiflorum [2]; [5]): 85%
- herbicidal activity (Papaver rhoeas; [7]): 65%
- herbicidal activity (Polygonum convolvulus; [5]): 0%
- herbicidal activity (Anthemis arvensis [3]; [6]): 0%
- herbicidal activity (Anthemis arvensis [3]; [7]): 40%
- herbicidal activity (Lolium multiflorum [4]; [5]): 35%

SMILES: CC1(C)CON(Cc2ccccc2Cl)C1=O [clomazone, 2-(2-chlorobenzyl)-4,4-dimethyl-1,2-oxazolidin-3-one]
- herbicidal activity (Anthemis arvensis [1]; [8]): 60%
- herbicidal activity (Anthemis arvensis [1]; [9]): 85%
- herbicidal activity (Brassica napus; [8]): 40%
- herbicidal activity (Brassica napus; [10]): 45%
- herbicidal activity (Brassica napus; [11]): 75%
- herbicidal activity (Brassica napus; solo application clomazone 1000 g ai/ha): 90%
- herbicidal activity (Geranium dissectum; [8]): 30%
- herbicidal activity (Geranium dissectum; [9]): 40%
- herbicidal activity (Geranium dissectum; [12]): 80%
- herbicidal activity (Lolium multiflorum [2]; [8]): 85%
- herbicidal activity (Papaver rhoeas; [11]): 90%
- herbicidal activity (Polygonum convolvulus; [8]): 75%
- herbicidal activity (Anthemis arvensis [3]; solo application clomazone 375 g ai/ha): 75%
- herbicidal activity (Anthemis arvensis [3]; [12]): 90%
- herbicidal activity (Lolium multiflorum [4]; [8]): 80%
- herbicidal activity (Lolium multiflorum [4]; [10]): 90%
